Assay results: US20210317086A1, “Tramadol HBR-Celecoxib Co-Crystal” (Mylan Laboratories Limited, priority 2018, published 2021)

Assay: Indicative stability: storage of the co-crystal at 40° C./75% RH and at 25° C./60% RH for 6 months, analysed by PXRD and HPLC
Type: physicochemical
Procedure: The PXRD measurements were carried out using PANalytical X′Pert PRO powder diffractometer equipped with goniometer of θ/θ configuration and X'Celerator detector. The Cu-anode X-ray tube was operated at 40 kV and 30 mA. The experiments were conducted over the […] of 2.0°-50.0°, 0.030° step size and 50 seconds step time.
In yet another embodiment, physical and chemical stability of 1:1 co-crystal of (rac)-tramadol.HBr-celecoxib sample was determined by storing the sample at 40° C./75% relative humidity (RH) and at 25° C./60% relative humidity (RH) for 6 months as mentioned in below Table 1. The samples were analyzed by PXRD and HPLC for final purity.

1:1 co-crystal of (rac)-tramadol hydrobromide and celecoxib
HPLC purity (%) (at 25° C./60% RH, 1 month): 99.88% | PXRD (at 25° C./60% RH, 1 month): Stable | HPLC purity (%) (at 25° C./60% RH, 2 months): 99.89% | PXRD (at 25° C./60% RH, 2 months): Stable | HPLC purity (%) (at 25° C./60% RH, 3 months): 99.87% | PXRD (at 25° C./60% RH, 3 months): Stable | HPLC purity (%) (at 25° C./60% RH, 6 months): 99.87% | PXRD (at 25° C./60% RH, 6 months): Stable | HPLC purity (%) (at 25° C./60% RH, Initial): 99.89% | PXRD (at 25° C./60% RH, Initial): Crystalline | HPLC purity (%) (at 40° C./75% RH, 1 month): 99.86% | PXRD (at 40° C./75% RH, 1 month): Stable | HPLC purity (%) (at 40° C./75% RH, 2 months): 99.89% | PXRD (at 40° C./75% RH, 2 months): Stable | HPLC purity (%) (at 40° C./75% RH, 3 months): 99.88% | PXRD (at 40° C./75% RH, 3 months): Stable | HPLC purity (%) (at 40° C./75% RH, 6 months): 99.86% | PXRD (at 40° C./75% RH, 6 months): Stable | HPLC purity (%) (at 40° C./75% RH, Initial): 99.89% | PXRD (at 40° C./75% RH, Initial): Crystalline | physical and chemical stability (conclusion from 6 months storage at 40° C./75% RH and 25° C./60% RH): physically and chemically stable | change in HPLC purity and PXRD pattern on storage (stored for 6 months at 40° C./75% RH and at 25° C./60% RH): no change in HPLC purity and PXRD pattern
